Source: patent US10918640B2, “Azetidine derivatives” (Vernalis (R&D) Ltd., priority 2008, dated 2021)

Test system: carrageenan-induced thermal hypersensitivity
Assay: Rat carrageenan induced thermal hyperalgesia model of inflammatory pain
Format: in vivo
Procedure: Rat Carrageenan Induced Thermal Hyperalgesia Model of Inflammatory Pain.
Male Wistar rats were assessed for thermal pain sensitivity by applying a focused light beam onto the hind paws and recording the time to paw withdrawal, before and after local intraplantar administration of carrageenan. After 3 h. thermal pain sensitivity was reassessed in treated and untreated hind paws prior to dosing with test compound or vehicle. Indomethacin was administered as a positive control.
Male Sprague Dawley rats were tail-marked, and acclimatized to the plantar boxes on 3 separate occasions (6, 5 and 1 day prior to the test day) for at least 5 min on each occasion. […] The latency to withdraw both left and right hindpaws from the heat source was determined on 2 occasions (3 min apart). The mean across the 2 challenges was recorded as the baseline for each animal. Rats 18 and 30 were not used in the study as they had very high baseline readings, and they were replaced by 61 and 63. […]
For example, the compound of Example 13 above was tested as follows: Rats were dosed with intraplantar carrageenan at t=0; the compound of Example 13 (1, 3 & 10 mg/kg po) or vehicle (5% EtOH: 95% (1% methylcellulose in water) at t=2 h; indomethacin (10 mg/kg ip) or vehicle at t=2.5 h and thermal sensitivity was measured at t=3 h. Thus all rats received both oral and ip dosing.

## O=C(Nc1cccnn1)N1CC(Oc2ccc(-c3ccccc3)cn2)C1 [Example 13, 3-(5-Phenyl-pyridin-2-yloxy)-azetidine-1-carboxylic acid pyridazin-3-ylamide]
1, 3, 10 mg/kg p.o., rat
  pain sensitivity relative to normal levels: did not reduce pain sensitivity to below normal levels
At 3 and 10 mg/kg doses p.o., one way ANOVA followed by Newman-Keuls post hoc tests
  statistical significance of inhibition cf. vehicle/carrageenan group: reached statistical significance
